Counter-ions that a name gives are not always drawn. Like-named read-outs stand apart in the source and are kept apart here.

For data set [1], the target named is T1, human Dopamine D2L receptor (Homo sapiens, UniProt P14416).
T1 construct: expressed in transfected cells; host or cells: CHO cells (membranes)
Briefly: In vitro binding affinity for human D2L receptor ([3H]spiperone). The conditions noted are these: membranes of human D2L receptor-transfected CHO cells, read-out: D2L binding pIC50 (converted). The text has this:
In order to find antipsychotic compounds active against positive and negative symptoms and cognitive impairment, and having an improved safety profile (low EPS incidence and no metabolic disorders), we have screened for compounds selectively interacting with the dopamine D2 receptor and dissociating fast from this receptor, and further having affinity for the dopamine D3 receptor as well as the serotonin 5-HT-6 receptor. Compounds were first screened for their D2 affinity in a binding assay using [^3H]spiperone and human D2L receptor cell membranes.
Frozen membranes of human Dopamine D2L receptor-transfected CHO cells were thawed, briefly homogenised using an Ultra-Turrax T25 homogeniser and diluted in Tris-HCl assay buffer containing NaCl, CaCl2, MgCl2, KCl (50, 120, 2, 1, and 5 mM respectively, adjusted to pH 7.7 with HCl) to an appropriate protein concentration optimised for specific and non-specific binding. Radioligand [^3H]Spiperone (NEN, specific activity ˜70 Ci/mmol) was diluted in assay buffer at a concentration of 2 nmol/L. Prepared radioligand (50 μl), along with 50 μl of either the 10% DMSO control, Butaclamol (10^−6 mol/l final concentration), or compound of interest, was then incubated (30 min, 37° C.) with 400 μl of the prepared membrane solution. Membrane-bound activity was filtered through a Packard Filtermate harvester onto GF/B Unifilterplates and washed with ice-cold Tris-HCl buffer (50 mM; pH 7.7; 6×0.5 ml). Filters were allowed to dry before adding scintillation fluid and counting in a Topcount scintillation counter. Percentage specific bound and competition binding curves were calculated using S-Plus software (Insightful).

For data set [2], the target named is T2, human D2L receptor (Homo sapiens, UniProt P14416).
T2 construct: expressed in transfected cells
T2 sequence (P14416 whole entry): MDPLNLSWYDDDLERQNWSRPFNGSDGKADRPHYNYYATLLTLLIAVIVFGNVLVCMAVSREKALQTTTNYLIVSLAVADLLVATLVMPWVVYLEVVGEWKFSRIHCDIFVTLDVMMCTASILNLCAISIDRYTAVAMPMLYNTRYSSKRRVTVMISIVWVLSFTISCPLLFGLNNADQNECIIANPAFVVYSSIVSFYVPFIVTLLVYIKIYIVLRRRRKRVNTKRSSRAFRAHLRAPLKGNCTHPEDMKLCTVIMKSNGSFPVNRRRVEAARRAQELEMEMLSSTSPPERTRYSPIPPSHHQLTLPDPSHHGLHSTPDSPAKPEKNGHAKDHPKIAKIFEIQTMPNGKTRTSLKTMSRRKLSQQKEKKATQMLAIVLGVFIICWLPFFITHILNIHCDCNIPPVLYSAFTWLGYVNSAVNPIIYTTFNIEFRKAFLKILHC
Briefly: Fast dissociation, indirect assay ([3H]spiperone binding after pre-incubation with compound). The conditions noted are these: compound at 4 times its IC50, 1 h pre-incubation at 25° C., then 5 min with 1 nM [3H]spiperone on filter. As for the experimental part: Compounds were first screened for their D2 affinity in a binding assay using [^3H]spiperone and human D2L receptor cell membranes.
Compounds at a concentration of 4 times their IC50 were first incubated for one hour with human D2L receptor cell membranes in a volume of 2 ml at 25° C., then filtered over glass-fibre filter under suction using a 40 well multividor. Immediately after, the vacuum was released. 0.4 ml of pre-warmed buffer (25° C.) containing 1 nM [^3H]spiperone was added on the filter for 5 minutes. The incubation was stopped by initiating the vacuum and immediate rinsing with 2×5 ml of ice-cold buffer. The filter-bound radioactivity was measured in a liquid scintillation spectrometer. The principle of the assay is based on the assumption that the faster a compound dissociates from the D2 receptor, the faster [^3H]spiperone binds to the D2 receptor.

The target in data set [3] is T3, human Serotonin 5HT6 receptor (Homo sapiens, UniProt P50406).
T3 construct: expressed in transfected cells; host or cells: HEK cells (membranes)
T3 sequence (P50406 whole entry): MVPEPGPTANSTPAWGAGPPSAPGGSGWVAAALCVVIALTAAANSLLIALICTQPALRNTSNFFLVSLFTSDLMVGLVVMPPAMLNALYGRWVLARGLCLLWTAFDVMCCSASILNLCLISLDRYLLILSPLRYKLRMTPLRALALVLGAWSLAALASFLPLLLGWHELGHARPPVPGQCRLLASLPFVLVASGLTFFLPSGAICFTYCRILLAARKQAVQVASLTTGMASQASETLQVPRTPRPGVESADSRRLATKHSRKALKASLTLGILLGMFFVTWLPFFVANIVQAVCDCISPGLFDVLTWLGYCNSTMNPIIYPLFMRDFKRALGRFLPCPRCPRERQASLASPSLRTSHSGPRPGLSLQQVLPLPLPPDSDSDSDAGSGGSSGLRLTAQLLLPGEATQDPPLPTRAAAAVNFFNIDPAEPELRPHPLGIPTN
The data set is described as follows: In vitro binding affinity for human 5HT6 receptor ([3H]LSD). On the procedure: Frozen membranes of human Serotonin 5HT6 receptor-transfected HEK cells were thawed, briefly homogenized using an Ultra-Turrax T25 homogeniser and diluted in 50 mM Tris-HCl assay buffer containing 10 mM MgCl2, 1 mM EDTA and 10 μM Pargyline (adjusted to pH 7.4 with HCl) to an appropriate protein concentration optimized for specific and non-specific binding. Radioligand [^3H]Lysergic acid diethylamide (Perkin Elmer, specific activity ˜80 Ci/mmol) was diluted in assay buffer at a concentration of 20 nM. Radioligand (20 μl), along with 40 μl of either the 10% DMSO control, Methiothepine (10^−5M final concentration), or compound of interest, was then incubated with 70 μl of the prepared membrane solution and 70 μl of WGA coated PVT beads (0.25 mg/well final concentration). After shaking for 24 hours at RT plates were counted in a Topcount™ scintillation counter. Percentage specific binding and competition binding curves were calculated using S-Plus software (Insightful).

In data set [4] the target is T4, human Dopamine D3 receptor (Homo sapiens, UniProt P35462).
T4 construct: expressed in transfected cells; host or cells: CHO cells (membranes)
T4 sequence (P35462 whole entry): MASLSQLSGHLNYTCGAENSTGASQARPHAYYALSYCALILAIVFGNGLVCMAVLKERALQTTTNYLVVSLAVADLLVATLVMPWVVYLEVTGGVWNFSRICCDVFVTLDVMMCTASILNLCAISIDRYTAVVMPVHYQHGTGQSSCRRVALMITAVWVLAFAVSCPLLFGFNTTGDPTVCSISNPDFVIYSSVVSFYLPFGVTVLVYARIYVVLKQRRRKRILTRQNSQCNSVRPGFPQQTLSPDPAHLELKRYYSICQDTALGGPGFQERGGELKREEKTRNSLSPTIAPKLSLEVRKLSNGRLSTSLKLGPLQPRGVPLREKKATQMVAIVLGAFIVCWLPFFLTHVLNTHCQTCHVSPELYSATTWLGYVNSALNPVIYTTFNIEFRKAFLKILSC
The data set is described as follows: In vitro binding affinity for human D3 receptor ([125I]iodosulpride). On the procedure:
Frozen membranes of human Dopamine D3 receptor-transfected CHO cells were thawed, briefly homogenized using an Ultra-Turrax T25 homogeniser and diluted in 50 mM Tris-HCl assay buffer containing 120 mM NaCl, 2 mM CaCl2, 1 mM MgCl2, 5 mM KCl and 0.1% BSA (adjusted to pH 7.4 with HCl) to an appropriate protein concentration optimized for specific and non-specific binding. Radioligand [^125I]Iodosulpride (Amersham, specific activity ˜2000 Ci/mmol) was diluted in assay buffer at a concentration of 2 nM. Prepared radioligand (20 μl), along with 40 μl of either the 10% DMSO control, Risperidone (10^−6M final concentration), or compound of interest, was then incubated with 70 μl of the prepared membrane solution and 70 μl of WGA coated PVT beads (0.25 mg/well final concentration). After shaking for 24 hours at RT plates were counted in a Topcount™ scintillation counter. Percentage specific binding and competition binding curves were calculated using S-Plus software (Insightful).

Where [5] appears, read: membranes of human 5HT6 receptor-transfected HEK cells, [3H]lysergic acid diethylamide, read-out: 5-HT6 binding pIC50 (converted).
[6] abbreviates: membranes of human D3 receptor-transfected CHO cells, [125I]iodosulpride, read-out: D3 binding pIC50 (converted).

T1 sequence (P14416 whole entry): as the sequence (P14416 whole entry) above

The compound `N#Cc1nc(N2CCNCC2)cc(-c2ccccc2)c1C(F)(F)F` (as salt: salt) [Example B2, 4-Phenyl-6-piperazin-1-yl-3-trifluoromethyl-pyridine-2-carbonitrile] gave a melting point of 255.3 °C.

As to `COc1nc(C(F)(F)F)c(-c2ccccc2)cc1N1CCNCC1` (as salt: salt) [Example B5, 1-(2-Methoxy-5-phenyl-6-trifluoromethyl-pyridin-3-yl)-piperazine], the melting point amounted to 184.8 °C.

Consider `COc1nc(C(F)(F)F)c(-c2ccc(F)cc2)cc1N1CCN(C(=O)OC(C)(C)C)CC1` [Example A16, 4-[5-(4-Fluoro-phenyl)-2-methoxy-6-trifluoromethyl-pyridin-3-yl]-piperazine-1-carboxylic acid tert-butyl ester], for which the values for the IC50 in data set [1], in data set [3] (setting [5]) and in data set [4] (setting [6]) were 7940 nM, 224 nM and 2090 nM, respectively. For the same compound, in data set [2], the “D2 dissociation ([3H]spiperone binding as % of total binding capacity)” value was 83%.

As to `Fc1ccc(-c2cc(N3CCNCC3)ncc2C(F)(F)F)cc1` [Example B1, 1-[4-(4-Fluoro-phenyl)-5-trifluoromethyl-pyridin-2-yl]-piperazine], the melting point is 80.6 °C. For the same compound, the IC50 in data set [1] was 3890 nM. The IC50 in data set [3] (setting [5]) was 123 nM.

With `N#Cc1nc(N2CCNCC2)cc(-c2ccccc2)c1C(F)(F)F` [Example B2, 4-Phenyl-6-piperazin-1-yl-3-trifluoromethyl-pyridine-2-carbonitrile], the IC50 was 129 nM in data set [1], 8.13 nM in data set [3] (setting [5]) and 10.7 nM in data set [4] (setting [6]). In addition, the “D2 dissociation ([3H]spiperone binding as % of total binding capacity)” value in data set [2] is 60%.

In the case of `COc1nc(N2CCNCC2)cc(-c2ccccc2)c1C(F)(F)F` [Example B3, 1-(6-Methoxy-4-phenyl-5-trifluoromethyl-pyridin-2-yl)-piperazine], the IC50 is 229 nM in data set [1], 18.6 nM in data set [3] and 46.8 nM in data set [4]. Also, the “D2 dissociation ([3H]spiperone binding as % of total binding capacity)” value in data set [2] is given as 45%.

Consider `FC(F)(F)c1ncc(N2CCNCC2)cc1-c1ccccc1` [Example B4, 1-(5-Phenyl-6-trifluoromethyl-pyridin-3-yl)-piperazine], for which the IC50 is 479 nM in data set [1], 138 nM in data set [3] (setting [5]) and 33.9 nM in data set [4]. Further, the “D2 dissociation ([3H]spiperone binding as % of total binding capacity)” value in data set [2] turned out to be 69%.

On to `COc1nc(C(F)(F)F)c(-c2ccccc2)cc1N1CCNCC1` [Example B5, 1-(2-Methoxy-5-phenyl-6-trifluoromethyl-pyridin-3-yl)-piperazine], for which the figures for the IC50 in data set [1] and in data set [3] (setting [5]) were 204 nM and 93.3 nM, respectively. Further, the “D2 dissociation ([3H]spiperone binding as % of total binding capacity)” value in data set [2] was 66%.

On to `COc1nc(C(F)(F)F)c(-c2ccc(F)cc2)cc1N1CCNCC1` [Example B6, 1-[5-(4-Fluoro-phenyl)-2-methoxy-6-trifluoromethyl-pyridin-3-yl]-piperazine], for which the IC50 in data set [1] was 468 nM; in data set [3] (setting [5]) it was 129 nM.

With `N#Cc1nc(C(F)(F)F)c(-c2ccccc2)cc1N1CCNCC1` [Example B7, 5-Phenyl-3-piperazin-1-yl-6-trifluoromethyl-pyridine-2-carbonitrile], the IC50 was 3390 nM in data set [1], 309 nM in data set [3] (setting [5]) and 372 nM in data set [4] (setting [6]).

For the compound `Cc1nc(C(F)(F)F)c(-c2ccccc2)cc1N1CCNCC1` [Example B8, 1-(2-Methyl-5-phenyl-6-trifluoromethyl-pyridin-3-yl)-piperazine], the IC50 in data set [1] is 4790 nM; in data set [3] (setting [5]) it was 170 nM; in data set [4] (setting [6]) it was 2090 nM. The “D2 dissociation ([3H]spiperone binding as % of total binding capacity)” value in data set [2] stood at 95%.

Usually melting point stands for the temperature of the solid-liquid transition.

Source of the values: patent US8895562B2, “Piperazin-1-yl-trifluoromethyl-substituted-pyridines as fast dissociating dopamine 2 receptor antagonists” (Janssen Pharmaceutica NV, priority 2008, dated 2014).
